Laboratory results as given in patent US6596712B2, “Treatment of carcinomas using squalamine in combination with other anti-cancer agents or modalities” (Genaera Corporation, priority 1996, dated 2003).

How the values were obtained:
[1] = tested on: C4-2 cells; assay: C4-2 cell growth in vitro ([3H]-thymidine incorporation); format: cell-based, human
Protocol: (§1) The anti-proliferative effect of squalamine was evaluated in tissue culture by both crystal violet staining and [^3H]-thymidine incorporation, on the LNCaP/C4-2 human prostate cancer progression model. Developed by applicants' laboratory, this lineage-derived cell line recapitulates the progression of human neoplastic prostate disease from an androgen-dependent and minimally metastatic condition (LNCaP cells) to an androgen-independent (defined as being able to proliferate in castrate hosts) and highly aggressive state (C4-2 subline).

[2] = tested on: rabbit corneas; assay: Inflammation in rabbit cornea without angiogenic stimulus; format: in vivo; conditions: pellets with 2%, 10% and 20% squalamine by weight
Protocol: In the rabbit corneal micropocket assay test, if the rabbit cornea becomes inflamed, this inflammation can lead to the formation of new blood vessels in the cornea. Such inflammation would skew the test results. Therefore, tests were conducted to determine whether squalamine, in and of itself, was responsible for any inflammatory response in the cornea. Several non-bioresorbable ethylene/vinyl acetate copolymer pellets were loaded with different concentrations of squalamine, namely, 2%, 10%, and 20% squalamine, by weight.

[3] = tested on: LNCaP cells; assay: LNCaP cell growth in vitro ([3H]-thymidine incorporation); format: cell-based, human
Protocol: as §1
In vitro experiments were also conducted with the LNCAP cell line in which cell proliferation as judged by [3H]-thymidine uptake was determined. LNCaP cells were maintained as previously described (cf. J. T. Hsieh et al., Cancer Research 53, 2852-2857 (1993)). Cells were exposed to 20 ng/mL vascular endothelial growth factor (VEGF), 20 μg/mL squalamine or a combination of VEGF and squalamine. […] As a consequence, the mechanism underlying the effectiveness of squalamine treatment of the LNCaP tumor in vivo may under certain conditions also involve direct inhibition of tumor cell growth and/or induction of tumor cell death.

[4] = tested on: 9L and C6 rat glioma cells, human H80 glioma cells, VX2 rabbit carcinoma cells; assay: Proliferation of tumor cell lines; format: cell-based
Protocol: In conducting this in vitro analysis, the following cell lines were tested: (a) bovine retinal endothelial cells; (b) 9L and C6 rat glioma cells; (c) human H80 glioma cells; and (d) VX2 rabbit carcinoma cells (the same type as the tumors implanted in the rabbit corneal micropocket assay test described above). The endothelial mitogen which was used in this analysis was VEGF at a concentration of 20 ng/ml.
The cells were allowed to attach overnight to tissue culture plates containing an optimized growth media. Following attachment, the cells were exposed to solvent only or 5 to increasing concentrations of squalamine (0, 10, 20, 30, 60, and 90 μg squalamine/ml). Cell growth was counted daily for three days using a Coulter Counter. A total of 10,000 cells per well were plated and each experimental concentration was tested in quadruplicate. The results were then averaged. The bovine retinal endothelial cells were grown and treated in an identical manner to the other cell lines, except that the growth of these cells was measured after the addition of 20 ng/ml of human recombinant VEGF to the cells prior to the squalamine treatment.
Percentage endothelial cell growth inhibition (%I) was determined by the following equation: [formula]

[5] = tested on: tumor induced capillary formation in rabbit cornea; assay: Rabbit corneal micropocket assay (VX2 carcinoma stimulus); format: in vivo; conditions: for reduction of Angiogenesis Index (AI) vs untreated eyes: pellet 20% squalamine
From the text: In determining whether a compound is antiangiogenic, the rabbit corneal micropocket assay is an accepted standard test. In this test, an incision is made in one rabbit cornea, and a stimulus is placed in the incision. The stimulus is used to induce blood vessel formation in the normally avascular corneal region. As one example, a solid tumor in a polymeric matrix can be placed in the cornea as the stimulus because the tumor will release a number of angiogenic growth factors to stimulate new capillary growth. The tumor-derived angiogenic growth factors stimulate the endothelial cells at the scleral junction in the eye to initiate blood vessel growth toward the stimulus. A second polymer pellet (e.g., an ethylene/vinyl acetate copolymer) is placed between the scleral junction and the stimulus. This polymer pellet is either empty (a negative control test pellet), or it contains a compound whose antiangiogenic characteristics are to be tested. The polymer pellet is used to provide a controlled release of the material to be studied. Because of the avascular cornea background in the rabbit cornea, one can visually assess the results qualitatively. In addition, the number of blood vessels can be counted and their length, etc., can be measured to provide a more quantitative evaluation of the results.
The VX2 rabbit carcinoma was implanted in 26 rabbit eyes, in the normally avascular corneal region, to act as an angiogenesis stimulus. […] The eyes were examined weekly using a slit lamp stereomicroscope for three weeks after tumor implantment, and the Angiogenesis Index (“AI”) was calculated (this calculation will be described in more detail below with reference to FIG. 8). […]
To provide a quantitative evaluation, the Angiogenesis Index (“AI”) of each eye was determined. […]
The vessel length (“Lvessel”) was then measured in each cornea. The vessel length is the length of the longest vessel measured from the cornea-scleral junction to the distal edge of the longest vessel growth. The Angiogenesis Index then is determined from these measurements by the following equation: [formula]

[6] = tested on: H460 human lung adenocarcinoma line; assay: Nude mouse xenograft model of lung cancer with cisplatin, H460; format: in vivo; conditions: started on day 4 or 5, daily i.p.
From the text: Studies in a nude mouse xenograft model of lung cancer have been carried out using several human lung cancer lines which differ in their growth rate. […] The experimental lung cancer model design involves subcutaneous injection of 5×10^6 tumor cells followed by a single injection of the chemotherapeutic drug on day 3 or 4. […] Groups of mice receiving squalamine alone started receiving the aminosterol on the same day as aminosterol treatment in the combination chemotherapy groups. Tumor volumes were then determined at termination of the experiment and compared.

[7] = tested on: transfected PS 120 fibroblast cells; assay: LDH leakage from transfected cells; format: cell-based; conditions: during NHE inhibiting effect
Protocol: In the transfected cells used in this test, it took at least 30 minutes before the NHE3 inhibition effect induced by squalamine was observed.

With `CC(C)[C@@H](CC[C@@H](C)[C@H]1CC[C@H]2[C@@H]3[C@H](O)C[C@H]4C[C@@H](NCCCNCCCCN)CC[C@]4(C)[C@H]3CC[C@]12C)OS(=O)(=O)O` [Squalamine, squalamine] the “growth of C4-2 cells, squalamine by itself” value ([1]; no exogenous VEGF) was “nominal effect”, the C4-2 proliferation ([1]; with addition of exogenous VEGF, to a greater extent than LNCaP) was “inhibited” and the “inflammation in the cornea” value [2] was “did not induce inflammation”. For the same compound, the “Percent of Control [3H]-Thymidine Uptake” value ([3]; 20 ng/mL VEGF and/or 20 μg/mL squalamine, 24 hours, media containing serum) was 75%, the “effect on cell growth alone” value ([3]; media containing serum, 20 ng/mL VEGF or 20 μg/mL squalamine) was “minimal effects on cell growth” and the “growth of LNCaP cells, squalamine by itself” value ([3]; no exogenous VEGF) was “nominal effect”. The LNCaP proliferation ([3]; with addition of exogenous VEGF) was “inhibited”, the “growth of H80, C6 and VX2 cell lines as percentage of control” value ([4]; 30 μg/ml, 1, 2 and 3 days (FIG. 9)) was “not dramatically affected” and the “cell proliferation by all tumor lines” value ([4]; 24 and 48 hours, up to 30 μg/ml) was “statistically unaffected”. For the same compound, the “reduction of Angiogenesis Index (AI) vs untreated eyes” value ([5]; Day 14) was 37%, the “reduction of Angiogenesis Index (AI) vs untreated eyes” value ([5]; Day 21) was 43% and the “vasculature of tumors in sectioned corneas” value ([5]; histology after the test) was “essentially no vasculature associated with those tumors”. For the same compound, the “tumor growth, monotherapy” value [6] was “minimal effects on tumor growth” and the “LDH leakage from the cell” value [7] was “absence of lactase dehydrogenase (LDH) leakage”.
